# Test results reported in patent US8765389B2, “Genetic products which are differentially expressed in tumors and use thereof” (Ganymed Pharmaceuticals AG, priority 2003, dated 2014).
# d = 2'-deoxy (DNA); r = 2'-OH (RNA)
# Columns and labels:
# Type in all cases: cell-based, human
# TPTE expression = test: Methylation studies: induceability of TPTE expression by genomic demethylation, real-time RT-PCR; settings: 72 h, 2 μM or 10 μM
# Experimental: Real-time RT-PCR analysis of the TPTE expression in the non-expressing cell lines BT549 and HCT116 following treatment of the cells with 2 μM and 10 μM 5-aza-2′-desoxycytidine, respectively, and in HCT116 cells which are deficient for DNA methyltransferase.
# For investigating the induceability of TPTE expression by genomic demethylation, TPTE negative cell lines BT549 (Mamma-Ca) and HCT116 (Colon-Ca) were cultivated for 72 h with 2 μM or 10 μM 5-aza-2′-desoxycytidine. Then, the TPTE expression was quantified by means of real-time RT-PCR. Furthermore, TPTE expression was quantified in DNA methyl transferase (DNMT) deficient HCT116 cells. While DNMT1 (HCT116^DNMT1−/−) or DNMT3b (HCT116^ENMT3b−/−) deficient cells show an almost unchanged methylation pattern when compared to the parental cell line (HCT116^Par), cells in which both DNMTs have been simultaneously deleted (HCT116^DKO) are characterized by an almost complete demethylation of genomic DNA.
# A quantitative real-time PCR (40 cycles, initial denaturation 15 min 95° C., 30 sec 94° C., 30 sec 62° C. and 30 sec 72° C.) was performed using specific primers (sense […] (SEQ ID NO: 823); antisense […] (SEQ ID NO: 28)) (FIG. 19). […] The ectopic expression of many known CT genes in tumors is induced by promoter demethylation. […]
# TPTE mRNA = test: Knock-down of TPTE expression in PC-3 cells using RNAi, real-time RT-PCR; settings: PC-3 cells electroporated with 1 μM siRNA, 24 hours later, quantitative real-time RT-PCR
# Experimental: PC-3 cells were electroporated using 1 μM siRNA specific for TPTE. After 24 h mRNA expression was quantified by real-time RT-PCR. Non-electroporated cells and cells electroporated with DsRed siRNA served as controls.
# Expression of TPTE, MS4A12, PCSC and BRCO1 was also quantified using real-time PCR, however, the PCR products were detected using SYBR-Green as reporter dye. The reporter fluorescence of SYBR-Green is suppressed in solution and the dye is only active following binding to double-stranded DNA fragments. The increase of SYBR-Green fluorescence due to the specific amplification by means of GOI-specific primers following each PCR cycle is used for quantification. Quantification of expression of the target gene is performed absolute or relative to the expression of a control gene with constant expression in the tissues to be studied. LDHC expression was calculated by means of the ΔΔ-CT method (PE Biosystems, USA), after normalizing the samples to 18s RNA as “house-keeping” gene. The reactions were carried out in duplex mixtures and determined in triplicate. The QuantiTect SYBR-Green PCR kit (Qiagen, Hilden) was used according to the manufacturer's instructions. cDNA was synthesized using the High Capacity cDNA Archive Kit (PE Biosystems, USA) and hexamer primers according to the manufacturer's information. […]
# [1] = test system: PC-3 prostate carcinoma cells; test: Boyden chamber (Transwell) migration assay of PC-3 cells after TPTE-siRNA electroporation
Compound,induction of TPTE expression (TPTE expression; BT549 (Mamma-Ca) cells),induction of TPTE expression (TPTE expression; HCT116 (Colon-Ca) cells),decrease in TPTE expression (TPTE mRNA) [%],cell migration in the Boyden chamber assay ([1]; 48 h after electroporation with 1 μM TPTE-siRNA),"reduction of the migration rate ([1]; Transwell migration assay, compared to untreated cells and cells electroporated with irrelevant siRNA) [%]"
Nc1ncn([C@H]2C[C@H](O)[C@@H](CO)O2)c(=O)n1 [5-aza-2′-desoxycytidine],strong induction of TPTE expression,strong induction of TPTE expression,,,
"TPTE-siRNA: siRNA duplex (SEQ ID NO: 826/827) targeting nucleotides 2043-2061 of the TPTE mRNA sequence (NM_013315) (chain 1 CCCUGCCACAUGUUCAUAUTT; chain 2 AUAUGAACAUGUGGCAGGGTT; sugars from the 5' end r19 d2, backbone not given here)",,,70,Relevant decrease of cell migration,70
